Test results published in patent US6737383B1, “Herbicidal oxadiazolidines” (priority 1999, dated 2004).

Assays:
giant foxtail = experiment: Test B pre/postemergence giant foxtail; assay type: in vivo, Setaria faberii
How it was run: (§1)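 Test chemicals in a non-phytotoxic solvent mixture with surfactant were sprayed preemergence onto planted seeds and postemergence onto plants 2 to 18 cm tall (1- to 4-leaf stage). After twelve to sixteen days in a greenhouse, injury was visually rated against untreated controls from 0 (no effect) to 10 (complete control).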

rape = experiment: Test B pre/postemergence rape; assay type: in vivo, Brassica napus
How it was run: as §1

wild oat = experiment: Test B pre/postemergence wild oat; assay type: in vivo, Avena fatua
How it was run: as §1

blackgrass = experiment: Test B pre/postemergence blackgrass; assay type: in vivo, Alopecurus myosuroides
How it was run: as §1

purple nutsedge = experiment: Test B pre/postemergence purple nutsedge; assay type: in vivo, Cyperus rotundus
How it was run: as §1

wheat = experiment: Test B pre/postemergence wheat; assay type: in vivo, Triticum aestivum
How it was run: as §1

surinam grass = experiment: Test B pre/postemergence surinam grass; assay type: in vivo, Brachiaria decumbens
How it was run: as §1

sugar beet = experiment: Test B pre/postemergence sugar beet; assay type: in vivo, Beta vulgaris
How it was run: as §1

morningglory = experiment: Test B pre/postemergence morningglory; assay type: in vivo, Ipomoea hederacea
How it was run: as §1

cocklebur = experiment: Test B pre/postemergence cocklebur; assay type: in vivo, Xanthium strumarium
How it was run: as §1

bedstraw = experiment: Test B pre/postemergence bedstraw; assay type: in vivo, Galium aparine
How it was run: as §1

soybean = experiment: Test B pre/postemergence soybean; assay type: in vivo, Glycine max
How it was run: as §1

pigweed = experiment: Test B pre/postemergence pigweed; assay type: in vivo, Amaranthus retroflexus
How it was run: as §1

smallflower flatsedge = experiment: Test B flood test smallflower flatsedge; assay type: in vivo, Cyperus difformis; conditions: Pre-emergence
How it was run: (§2)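 Read-out is a visual response score from 0 (no effect) to 10 (complete control), assigned by comparison with untreated controls. Treatment was applied at the 2-leaf stage, and plants stayed in the greenhouse for twelve to sixteen days before scoring.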

duck salad = experiment: Test B flood test duck salad; assay type: in vivo, Heteranthera limosa; conditions: Pre-emergence
How it was run: as §2

bamyardgrass = experiment: Test B flood test barnyardgrass; assay type: in vivo, Echinochloa crus-galli; conditions: Pre-emergence
How it was run: as §2

[1] = Postemergence, Rate 1000 g/ha, scale 0 to 10 (0 no effect, 10 complete control)
[2] = Preemergence, Rate 250 g/ha, scale of 0 to 10 where 0 is no effect and 10 is complete control
[3] = Preemergence, Rate 500 g/ha, scale of 0 to 10 where 0 is no effect and 10 is complete control
[4] = Rate 125 g/ha, Postemergence, scale of 0 to 10 where 0 is no effect and 10 is complete control
[5] = Rate 125 g/ha, Preemergence, scale of 0 to 10 where 0 is no effect and 10 is complete control
[6] = Rate 250 g/ha, Postemergence, scale of 0 to 10 where 0 is no effect and 10 is complete control
[7] = Rate 500 g/ha, Postemergence, scale 0 to 10, 0 no effect, 10 complete control
[8] = Rate 1000 g/ha, Preemergence, scale 0 to 10 (0 no effect, 10 complete control)
[9] = Rate 1000 g/ha, scale 0 to 10 (0 no effect, 10 complete control)
[10] = Rate 125 g/ha, flood test species, scale 0 to 10 where 0 is no effect and 10 is complete control
[11] = Rate 250 g/ha, flood-test species, scale 0 to 10, 0 is no effect, 10 is complete control
[12] = Rate 500 g/ha, flood test species, scale 0 to 10 (0 no effect, 10 complete control)

CCOC(=O)C(C)N(C(=O)n1oc(=O)n(C2CCCCC2)c1=O)c1ccc(F)cc1 (stereo not shown) [Compound 280]
Giant foxtail plant response rating (giant foxtail; [1]): 0 | Giant foxtail plant response rating (giant foxtail; [2]): 0 | Plant response rating, Giant foxtail (giant foxtail; [3]): 0 | Giant foxtail plant response rating (giant foxtail; [4]): 0 | Giant foxtail plant response rating (giant foxtail; [5]): 0 | Plant response rating, Giant foxtail (giant foxtail; [6]): 0 | Giant foxtail plant response rating (giant foxtail; [7]): 0 | Plant response rating, Giant foxtail (giant foxtail; [8]): 0 | Rape plant response rating (rape; [1]): 0 | Rape plant response rating (rape; [2]): 0 | Plant response rating, Rape (rape; [3]): 0 | Rape plant response rating (rape; [4]): 0 | Rape plant response rating (rape; [5]): 0 | Plant response rating, Rape (rape; [6]): 0 | Rape plant response rating (rape; [7]): 0 | Plant response rating, Rape (rape; [8]): 0 | Wild oats plant response rating (wild oat; [1]): 0 | Wild oats plant response rating (wild oat; [2]): 0 | Plant response rating, Wild oats (wild oat; [3]): 0 | Wild oats plant response rating (wild oat; [4]): 0 | Plant response rating, Wild oats (wild oat; [6]): 0 | Wild oats plant response rating (wild oat; [7]): 0 | Plant response rating, Wild oats (wild oat; [8]): 0 | Blackgrass plant response rating (blackgrass; [1]): 0 | Blackgrass plant response rating (blackgrass; [2]): 0 | Plant response rating, Blackgrass (blackgrass; [3]): 0 | Blackgrass plant response rating (blackgrass; [4]): 0 | Blackgrass plant response rating (blackgrass; [5]): 0 | Plant response rating, Blackgrass (blackgrass; [6]): 0 | Blackgrass plant response rating (blackgrass; [7]): 0 | Plant response rating, Blackgrass (blackgrass; [8]): 0 | Nutsedge plant response rating (purple nutsedge; [1]): 0 | Nutsedge plant response rating (purple nutsedge; [2]): 0 | Plant response rating, Nutsedge (purple nutsedge; [3]): 0 | Nutsedge plant response rating (purple nutsedge; [4]): 0 | Nutsedge plant response rating (purple nutsedge; [5]): 0 | Plant response rating, Nutsedge (purple nutsedge; [6]): 0 | Nutsedge plant response rating (purple nutsedge; [7]): 0 | Plant response rating, Nutsedge (purple nutsedge; [8]): 0 | Wheat plant response rating (wheat; [1]): 0 | Wheat plant response rating (wheat; [2]): 0 | Plant response rating, Wheat (wheat; [3]): 0 | Wheat plant response rating (wheat; [4]): 0 | Wheat plant response rating (wheat; [5]): 0 | Plant response rating, Wheat (wheat; [6]): 0 | Wheat plant response rating (wheat; [7]): 0 | Plant response rating, Wheat (wheat; [8]): 0 | B. signalgrass plant response rating (surinam grass; [1]): 0 | B. signalgrass plant response rating (surinam grass; [2]): 0 | Plant response rating, B. signalgrass (surinam grass; [3]): 0 | B. signalgrass plant response rating (surinam grass; [4]): 0 | B. signalgrass plant response rating (surinam grass; [5]): 0 | Plant response rating, B. signalgrass (surinam grass; [6]): 0 | B. signalgrass plant response rating (surinam grass; [7]): 0 | Plant response rating, B. signalgrass (surinam grass; [8]): 0 | Sugarbeets plant response rating (sugar beet; [1]): 0 | Sugarbeets plant response rating (sugar beet; [2]): 0 | Plant response rating, Sugarbeets (sugar beet; [3]): 0 | Sugarbeets plant response rating (sugar beet; [4]): 0 | Sugarbeets plant response rating (sugar beet; [5]): 0 | Plant response rating, Sugarbeets (sugar beet; [6]): 0 | Sugarbeets plant response rating (sugar beet; [7]): 0 | Plant response rating, Sugarbeets (sugar beet; [8]): 0 | Morningglory plant response rating (morningglory; [1]): 0 | Morningglory plant response rating (morningglory; [2]): 0 | Plant response rating, Morningglory (morningglory; [3]): 0 | Morningglory plant response rating (morningglory; [4]): 0 | Morningglory plant response rating (morningglory; [5]): 0 | Plant response rating, Morningglory (morningglory; [6]): 0 | Morningglory plant response rating (morningglory; [7]): 0 | Plant response rating, Morningglory (morningglory; [8]): 0 | Cocklebur plant response rating (cocklebur; [1]): 0 | Cocklebur plant response rating (cocklebur; [2]): 0 | Plant response rating, Cocklebur (cocklebur; [3]): 0 | Cocklebur plant response rating (cocklebur; [4]): 0 | Cocklebur plant response rating (cocklebur; [5]): 0 | Plant response rating, Cocklebur (cocklebur; [6]): 0 | Cocklebur plant response rating (cocklebur; [7]): 0 | Plant response rating, Cocklebur (cocklebur; [8]): 0 | Bedstraw plant response rating (bedstraw; [1]): 0 | Bedstraw plant response rating (bedstraw; [2]): 0 | Plant response rating, Bedstraw (bedstraw; [3]): 0 | Bedstraw plant response rating (bedstraw; [4]): 0 | Bedstraw plant response rating (bedstraw; [5]): 0 | Plant response rating, Bedstraw (bedstraw; [6]): 0 | Bedstraw plant response rating (bedstraw; [7]): 0 | Plant response rating, Bedstraw (bedstraw; [8]): 0 | Soybean plant response rating (soybean; [1]): 5 | Soybean plant response rating (soybean; [2]): 0 | Plant response rating, Soybean (soybean; [3]): 0 | Soybean plant response rating (soybean; [4]): 1 | Soybean plant response rating (soybean; [5]): 0 | Plant response rating, Soybean (soybean; [6]): 3 | Soybean plant response rating (soybean; [7]): 5 | Plant response rating, Soybean (soybean; [8]): 0 | Redroot pigweed plant response rating (pigweed; [1]): 3 | Redroot pigweed plant response rating (pigweed; [2]): 0 | Plant response rating, Redroot pigweed (pigweed; [3]): 0 | Redroot pigweed plant response rating (pigweed; [4]): 0 | Redroot pigweed plant response rating (pigweed; [5]): 0 | Plant response rating, Redroot pigweed (pigweed; [6]): 0 | Redroot pigweed plant response rating (pigweed; [7]): 1 | Plant response rating, Redroot pigweed (pigweed; [8]): 0 | S. Flatsedge plant response rating (smallflower flatsedge; [9]): 0 | S. Flatsedge plant response rating (smallflower flatsedge; [10]): 0 | S. Flatsedge plant response rating (smallflower flatsedge; [11]): 0 | S. Flatsedge plant response rating (smallflower flatsedge; [12]): 0 | Ducksalad plant response rating (duck salad; [9]): 0 | Ducksalad plant response rating (duck salad; [10]): 0 | Ducksalad plant response rating (duck salad; [11]): 0 | Ducksalad plant response rating (duck salad; [12]): 0 | Barnyardgrass plant response rating (bamyardgrass; [9]): 0 | Barnyardgrass plant response rating (bamyardgrass; [10]): 0 | Barnyardgrass plant response rating (bamyardgrass; [11]): 0 | Barnyardgrass plant response rating (bamyardgrass; [12]): 0
